From ChEMBL document CHEMBL1949615, “Dual β2-adrenoceptor agonists-PDE4 inhibitors for the treatment of asthma and COPD” (Bioorg Med Chem Lett, 2012)
The source made the active and inactive calls. The rule behind the calls is not given here.

Columns and labels:
[1] = molecular target: Beta-2 adrenergic receptor (Cavia porcellus) (UniProt Q8K4Z4); assay: Agonist activity at beta2 adrenoceptor in guinea pig assessed as relaxation of histamine-induced tracheal ring contraction in the presence of inverse agonist ICI-118551; format: functional, tissue-based; settings: Trachea
Chain of Beta-2 adrenergic receptor (Cavia porcellus) (Q8K4Z4 whole entry, looked up): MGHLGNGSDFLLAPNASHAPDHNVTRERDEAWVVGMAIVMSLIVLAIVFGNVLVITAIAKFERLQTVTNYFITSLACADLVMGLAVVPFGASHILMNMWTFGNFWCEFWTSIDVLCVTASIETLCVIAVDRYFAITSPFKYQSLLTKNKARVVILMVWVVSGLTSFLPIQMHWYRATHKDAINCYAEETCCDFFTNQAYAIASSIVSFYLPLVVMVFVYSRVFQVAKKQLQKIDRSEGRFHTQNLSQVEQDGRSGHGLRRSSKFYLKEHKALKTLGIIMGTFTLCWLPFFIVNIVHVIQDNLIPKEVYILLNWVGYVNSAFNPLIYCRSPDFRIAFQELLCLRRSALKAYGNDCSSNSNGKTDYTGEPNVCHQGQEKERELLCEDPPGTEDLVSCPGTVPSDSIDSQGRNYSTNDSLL

[2] = molecular target: 3',5'-cyclic-AMP phosphodiesterase 4B (Homo sapiens, UniProt Q07343); assay: Inhibition of human recombinant PDE4B2-mediated cAMP hydrolysis for 30 mins by colorimetric assay
Chain of 3',5'-cyclic-AMP phosphodiesterase 4B (Q07343 whole entry): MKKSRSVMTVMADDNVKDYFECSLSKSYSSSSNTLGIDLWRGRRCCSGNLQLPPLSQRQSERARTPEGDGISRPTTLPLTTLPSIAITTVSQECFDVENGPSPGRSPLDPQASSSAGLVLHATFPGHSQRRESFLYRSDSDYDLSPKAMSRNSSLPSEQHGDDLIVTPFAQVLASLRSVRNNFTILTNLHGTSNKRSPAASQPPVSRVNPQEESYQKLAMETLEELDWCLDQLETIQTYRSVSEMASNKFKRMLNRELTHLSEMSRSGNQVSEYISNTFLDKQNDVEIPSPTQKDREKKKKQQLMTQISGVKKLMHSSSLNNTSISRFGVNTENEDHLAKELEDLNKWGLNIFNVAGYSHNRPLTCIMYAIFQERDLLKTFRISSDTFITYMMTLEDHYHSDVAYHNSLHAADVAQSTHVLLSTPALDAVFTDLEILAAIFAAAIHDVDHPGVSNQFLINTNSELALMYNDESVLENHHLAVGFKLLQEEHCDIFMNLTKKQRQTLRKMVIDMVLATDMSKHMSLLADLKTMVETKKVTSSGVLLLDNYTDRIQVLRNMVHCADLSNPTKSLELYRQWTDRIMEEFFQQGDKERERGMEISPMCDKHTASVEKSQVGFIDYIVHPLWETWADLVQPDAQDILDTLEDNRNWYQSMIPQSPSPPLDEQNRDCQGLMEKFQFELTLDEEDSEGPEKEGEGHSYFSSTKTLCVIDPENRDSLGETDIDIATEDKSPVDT

[3] = molecular target: T1, Beta-2 adrenergic receptor (Cavia porcellus, UniProt Q8K4Z4); assay: Competitive antagonist activity at beta2-adrenoceptor in guinea pig tracheal ring in the presence of N-(5-((1R)-2-(4-(4-(3,4-[…])-1-oxo-4a,5,6,7,8,8a-hexahydrophthalazin-2(1H)-yl)butylamino-1-hydroxyethyl)-2-hydroxyphenyl)formamide; format: functional; settings: read-out: pA2 (converted)
T1 sequence (Q8K4Z4 whole entry): as the sequence (Q8K4Z4 whole entry, looked up) above

[4] = molecular target: T1, Beta-2 adrenergic receptor; assay: Agonist activity at beta2 adrenoceptor in guinea pig assessed as relaxation of histamine-induced tracheal ring contraction; format: functional, tissue-based, Trachea
[5] = Inhibition of PDE4

| Structure (SMILES) | Activity [1] | IC50 [2] [nM] | Kb [3] [nM] | EC50 [4] [nM] | IC50 [5] [nM] |
| --- | --- | --- | --- | --- | --- |
| COc1ccc(C2=NN(CCCCNC[C@H](O)c3ccc(O)c(NC=O)c3)C(=O)C3CCCCC23)cc1OC (stereo partly drawn) | inactive | 265 | 0.708 | 0.1 | – |
| COc1ccc(C2=NN(CCCCCCNCC(O)c3ccc(O)c(NC=O)c3)C(=O)C3CCCCC23)cc1OC (stereo not drawn) | – | 251 | – | 50.1 | – |
| COc1ccc(C2=NN(CCCCCNCC(O)c3ccc(O)c(NC=O)c3)C(=O)C3CCCCC23)cc1OC (stereo not drawn) | – | 257 | – | 20 | – |
| COc1ccc([C@]2(C#N)CC[C@@H](C(=O)O)CC2)cc1OC1CCCC1 [CILOMILAST] | – | – | – | – | 95 |
| COc1ccc(C2=NNC(=O)C3CCCCC23)cc1OC (stereo not drawn) | – | 520 | – | – | – |
| COc1ccc(C2=NN(CCCCNCC(O)c3ccc(O)c(NC=O)c3)C(=O)C3CCCCC23)cc1OC (racemic) | – | 278 | – | 0.501 | – |
| COc1ccc(C2=NN(CCCCNC[C@@H](O)c3ccc(O)c(NC=O)c3)C(=O)C3CCCCC23)cc1OC (stereo partly drawn) | – | 284 | – | 126 | – |
| CC(C)NCC(O)c1ccc(O)c(O)c1 (stereo not drawn) [ISOPROTERENOL] | – | – | – | 31.6 | – |
| COc1ccc(C2=NN(CCNCC(O)c3ccc(O)c(NC=O)c3)C(=O)C3CCCCC23)cc1OC (stereo not drawn) | – | 280 | – | 20 | – |
| O=c1[nH]ncc2ccccc12 [PHTHALAZINONE] | – | 520 | – | – | – |
